Data set [1] has as its target T1, RSV A2_F (Human respiratory syncytial virus A, UniProt P03420).
T1 construct: expressed in transfected cells; host or cells: HEK 293T/17
Put plainly: RSV fusion assay (luciferase reporter, HEK 293T/17 cells transfected with A2_F). The format is cell-based. Conditions: Fusion activity IC50 μM, HEK 293T/17 cells, 24 hr. Here is the method:
HEK 293T/17 cells were cultured in T75 culture flasks in Dulbecco's medium (DMEM) containing 10% FBS and 1× Penicillin-Streptomycin (Pen/Strep) and warmed to 37° C. prior to use. The cells were passaged by first washing briefly with 3 ml phosphate buffered saline (PBS) followed by a 4 min incubation with […] at 37° C. 7 ml media was then added to the flask and the cells dispersed via pipetting (×3) against the bottom of the flask. Two further T75 flasks were each seeded with 2×10^6 cells in 15 ml fresh media.
Cells were seeded on the T75 plates at the same density as on the 6-well plates the area of a T75 flask and one 1.75 cm radius well from a 6-well plate were compared. 7.79×2 ml of 3×10^5 cells ml^−1 was used to seed a single T75 flask.
HEK cells were removed from a T75 flask as described above. The cells were counted and diluted to 3×10^5 cells/ml in fresh media. Two T75 flasks were each seeded with 15.58 ml diluted cells.
The plasmid DNA (for pFR-Luc and pcDNA3.1_Gal4/NFκB) to be transfected into the HEK cells was first prepared in serum free media (DMEM+Pen/Strep) containing the transfection reagent Fugene 6 (Promega). Transfections were set up as follows (Luc=pFR_Luc, Gal4=pcDNA3.1+_Gal4/NFκB, A2_F=pcDNA3.1+_A2_F)
Serum free media was placed in a 1.5 ml eppendorf tube then the fugene 6 was added into the media. The tube was vortexed for 1 s before being incubated at RT for 5 min. The plasmid DNA was then added to the tube, vortexed for 1 s, then incubated at RT for 15 min
The transfection reagents were then added to the appropriate T75 flask by tipping the flask on end and adding the reagents directly to the media already in the flask. The flask was then tipped on its back so the media could be mixed thoroughly whilst not disturbing the cells before placing the flask the right way up and incubating overnight at 37° C. and 5% CO2.
Compounds were diluted (in a polypropylene round-bottomed 96 well plate) 1:3 in a twelve point dilution curve to give top [final] of either 3.3 μM, 1 μM, 500 nM 200 nM or 100 nM. The Control compound was always run at a concentration of 100 nM.
The cells were then counted and diluted to 4×10^5 cells/ml in fresh media. 50 μl of transfection population 1 cells were added to all wells of the assay plates. 100 μl diluted compound (2 rows per compound), standard curve (one row) and controls (100 nM RV (100% inhibition, four wells), DMSO (0% inhibition, eight wells)) were added to the appropriate wells. 50 μl of the diluted (4×10^5 cells/ml) transfection population 2 cells when then added to all wells.
The plates were then incubated for 24 hr at 37° C. and 5% CO2
Buffers were prepared for the luciferase assay (20 mM tricine, 10 mM MgSO4, 1 mM EDTA, 10 mM DTT) and lysis (25 mM tris-phosphate, 8 mM MgCl2, 1 mM DTT, 1% Triton X-100, 15% glycerol) and stored at −20° C.
Luminescence was measured as described:
Media was discarded into Virkon and the plates washed with 100 ul PBS per well. 20 ul/well of lysis buffer was added to each well and incubated shaking for 5 min at RT. Luciferin was added to LAAB at a dilution of 1:50 to give a working luciferin buffer. 100 μl working luciferin buffer was added to each well and luminescence was measured immediately. […]

The nature of data set [2]: Liver microsomal stability, human. Conditions: both sexes, pooled liver microsomes, pH 7.4, 0.5 mg/mL protein, read-out: Liver Microsomal Stability (T1/2/mins) human. The format is in vitro ADME. As for the experimental part:
Microsomal Incubation: Experimental Procedure
Pooled human liver microsomes (pooled male and female), pooled rat liver microsomes (male Sprague Dawley rats) and pooled dog liver microsomes (male Beagle dog) are purchased from a reputable commercial supplier and stored at −80° C. prior to use.
Microsomes (final protein concentration 0.5 mg/mL), 0.1 M phosphate buffer pH 7.4 and test compound (final substrate concentration 3 μM; final DMSO concentration 0.25%) are pre-incubated at 37° C. prior to the addition of NADPH (final concentration 1 mM) to initiate the reaction. The final incubation volume is 50 μL. A control incubation is included for each compound tested where 0.1 M phosphate buffer pH 7.4 is added instead of NADPH (minus NADPH). Two control compounds are included with each species. All incubations are performed singularly for each test compound.
Compounds are incubated for 0, 5, 15, 30 and 45 min. The control (minus NADPH) is incubated for 45 min only. […] Following protein precipitation, the sample supernatants are combined in cassettes of up to 4 compounds, internal standard is added and samples analysed by LC-MS/MS. From a plot of ln peak area ratio (compound peak area/internal standard peak area) against time, the gradient of the line is determined. Subsequently, half-life and intrinsic clearance are calculated

T1 sequence (P03420 137-574): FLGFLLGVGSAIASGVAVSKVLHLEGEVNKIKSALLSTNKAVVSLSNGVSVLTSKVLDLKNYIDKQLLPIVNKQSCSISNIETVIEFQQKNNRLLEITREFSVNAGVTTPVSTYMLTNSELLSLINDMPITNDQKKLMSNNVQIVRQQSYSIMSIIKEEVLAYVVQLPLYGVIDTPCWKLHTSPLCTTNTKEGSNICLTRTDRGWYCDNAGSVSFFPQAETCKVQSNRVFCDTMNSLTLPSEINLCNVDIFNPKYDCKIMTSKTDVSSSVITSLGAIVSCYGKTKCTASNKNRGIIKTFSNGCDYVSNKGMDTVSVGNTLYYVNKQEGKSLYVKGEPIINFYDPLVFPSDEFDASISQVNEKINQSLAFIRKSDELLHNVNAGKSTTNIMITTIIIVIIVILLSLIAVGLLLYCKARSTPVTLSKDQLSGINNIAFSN
T1 sequence (P03420 26-109): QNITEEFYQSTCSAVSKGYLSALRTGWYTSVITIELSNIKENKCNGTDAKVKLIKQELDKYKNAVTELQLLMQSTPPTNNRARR

In turn, `NC1CCN(c2ncc(CN3C(=O)C4(CC4)c4ccc(F)cc43)c(N[C@H]3CC[C@H](O)CC3)n2)C1` (some centres unmarked) [Compound 2, 1′-((2-(3-Aminopyrrolidin-1-yl)-4-(((1r,4r)-4-hydroxycyclohexyl)amino)pyrimidin-5-yl)methyl)-6′-fluorospiro[cyclopropane-1,3′-indolin]-2′-one] came in with a concentration for half-maximal inhibition (IC50) in data set [1] of 0.237 µM. The half-life at 3 μM in data set [2] came to 2.82 h.
